# Assays:
# [1] = test system: human HCT-15 colon carcinoma; type: in vivo, female BALB/c nude mice; settings: 4 mg/kg, i.v. once on day 14
# Protocol: (§1) Female or male BALB/c nu/nu (nude) mice are kept under sterile conditions (10 to 12 mice per Type III cage) with free access to food and water. Mice weigh between 20 and 25 grams at the time of tumor implantation. Tumors are established by subcutaneous injection of cells (minimum 2×10^6 cells in 100 μl PBS or medium) in carrier mice (4-8 mice per cell line). The resulting tumors are serially passaged for a minimum of three consecutive transplantations prior to start of treatment. Tumor fragments (approx. 25 mg) are implanted s.c. into the left flank of animals with a 13-gauge trocar needle while the mice are exposed to Forene (Abbott, Switzerland) anesthesia.
# (§2) Tumor growth and body weights are monitored once or twice weekly. All treatments are administered intravenously (i.v.) and are initiated when a mean tumor volume of approximately 100 to 250 mm^3 is attained, depending upon the tumor type. Tumor volumes are determined using the formula […] (see Cancer Chemother. Pharmacol. 24:148-154, [1989]). Treatments with epothilone B vary the dose and the frequency of administration. Comparator agents are administered according to previously determined optimal treatment regimens. In addition to presenting changes in tumor volumes over the course of treatment, antitumor activity is expressed as T/C% (mean increase of tumor volumes of treated animals divided by the mean increase of tumor volumes of control animals multiplied by 100). Tumor regression (%) represents the smallest mean tumor volume compared to the mean tumor volume at the start of treatment, according to the formula Regression (%)=(1−Vend/Vstart)×100 (Vend=final mean tumor volume, Vstart=mean tumor volume at the start of treatment. Any animals in which the tumor has reached a size exceeding approximately 1.5 to 2.5 cm^3 are sacrificed. Details can be found below.
# Tumor fragments of approximately 25 mg are implanted into the left flank of each female nude mouse (n=8 per group). Treatments are started on day 14 after tumor transplantation. Epothilone B is administered once at 4 mg/kg, i.v. on day 14.5-Fluorouracil is administered at 75 mg/kg, i.v., on days 14 and 21. TAXOL® is administered i.v. at 20 mg/kg/day, every second day for 5 treatments (days 14, 16, 18, 20 and 22). Antitumor activity is expressed as T/C% (mean increase of tumor volumes of treated animals divided by the mean increase of tumor volumes of control animals multiplied by 100). Tumor regression (%) represents the final mean tumor volume compares to the mean tumor volume at the start of treatment. Δ Tumor volumes represent the tumor volume on the last treatment day minus the tumor volume on the first treatment day. Statistical analyses on Δ tumor volumes uses Dunnett's test to compare treatment groups to controls. Statistical analyses on body weight changes uses paired t-tests comparing body weights before treatment to those at the end of treatment; mice weigh ˜20-25 g at the start of treatment. Not significant is indicated by the abbreviation ,ns”. Data presented are means±SEM from animals surviving to the end of the experiment.
# [2] = test system: human estrogen-dependent ZR-75-1 breast tumor; assay: Antitumor effect against s.c. transplanted ZR-75-1 tumors; type: in vivo, female BALB/c nude mice
# Protocol: as §1, §2
# Tumor fragments of approximately 25 mg are implanted into the left flank of each female nude mouse (n=6 per group); a subcutaneous estrogen pellet is placed in the opposite flank. Treatments are started on day 19 after tumor transplantation. epothilone B is administered at 1, 2 or 4 mg/kg, i.v., either once per week (days 19, 26 and 33) or every second week (days 19 and 33). Data presented are from animals surviving to day 47, the last day of controls. Antitumor activity is expressed as T/C% (mean increase of tumor volumes of treated animals divided by the mean increase of tumor volumes of control animals multiplied by 100). Tumor regression (%) represents the final mean tumor volume compared to the mean tumor volume at the start of treatment. Changes (A) in tumor volume represent the tumor volume on the last treatment day minus the tumor volume on the first treatment day.
# [3] = GLP toxicology study in dogs; type: in vivo; settings: dog
# Protocol: The starting dose level is 0.3 mg/m^2. This dose is calculated as one-third of the toxic dose low (TDL) in the most sensitive species studied which, for epothilone B, is the dog. […] Using a factor of 20 to convert mg/kg in the dog to mg/m^2 in humans, this starting dose is calculated as: […]
# [4] = 1 mg/kg, i.v. every 7 days, day 47
# [5] = 2 mg/kg, i.v. every 7 days, day 47
# [6] = 4 mg/kg, i.v. every 7 days, day 47
# [7] = 4 mg/kg, i.v. every 14 days, day 47
smiles,measurement,setting,value
C/C(=C\c1csc(C)n1)[C@@H]1C[C@@H]2O[C@]2(C)CCC[C@H](C)[C@H](O)[C@@H](C)C(=O)C(C)(C)[C@@H](O)CC(=O)O1 [epothilone B],% Body Weight Change,[1],2 ± 2%
same,Mortalities due to treatment,[1],No mortalities
same,T/C,[1],Regres-
same,D Body Weight,[1]; mean ± SEM,0.4 ± 0.3 g
same,Regression,[2]; [4],none
same,T/C (%),[2]; [4],86%
same,Δ Body Weight,[2]; [4],0.3 g
same,Regression,[2]; [5],none
same,T/C (%),[2]; [5],40%
same,Δ Body Weight,[2]; [5],-3.5 g
same,T/C (%),[2]; [6],1%
same,Δ Body Weight,[2]; [6],-1.2 g
same,Regression,"[2]; 4 mg/kg, i.v. every 7 days, transient",−8%
same,Regression,[2]; [7],none
same,T/C (%),[2]; [7],46%
same,Δ Body Weight,[2]; [7],-1.6 g
same,toxic dose low (TDL),"[3]; most sensitive species, estimated",~0.5 mg/kg
same,Mortalities,"[3]; 0.1 mg/kg, repeated once 3 weeks later (lower of the 2 doses)",no mortalities
